Laboratory results: ChEMBL document CHEMBL1770085, “Homodimeric bis-quaternary heterocyclic ammonium salts as potent acetyl- and butyrylcholinesterase inhibitors: a systematic investigation of the influence of linker and cationic heads over affinity and selectivity” (J Med Chem, 2011)

Experiments:
[1] = Selectivity index, ratio of IC50 for equine BChE to IC50 for bovine AChE
[2] = molecular target: T1, Acetylcholinesterase (Bos taurus, UniProt P23795)
T1 sequence (P23795 whole entry): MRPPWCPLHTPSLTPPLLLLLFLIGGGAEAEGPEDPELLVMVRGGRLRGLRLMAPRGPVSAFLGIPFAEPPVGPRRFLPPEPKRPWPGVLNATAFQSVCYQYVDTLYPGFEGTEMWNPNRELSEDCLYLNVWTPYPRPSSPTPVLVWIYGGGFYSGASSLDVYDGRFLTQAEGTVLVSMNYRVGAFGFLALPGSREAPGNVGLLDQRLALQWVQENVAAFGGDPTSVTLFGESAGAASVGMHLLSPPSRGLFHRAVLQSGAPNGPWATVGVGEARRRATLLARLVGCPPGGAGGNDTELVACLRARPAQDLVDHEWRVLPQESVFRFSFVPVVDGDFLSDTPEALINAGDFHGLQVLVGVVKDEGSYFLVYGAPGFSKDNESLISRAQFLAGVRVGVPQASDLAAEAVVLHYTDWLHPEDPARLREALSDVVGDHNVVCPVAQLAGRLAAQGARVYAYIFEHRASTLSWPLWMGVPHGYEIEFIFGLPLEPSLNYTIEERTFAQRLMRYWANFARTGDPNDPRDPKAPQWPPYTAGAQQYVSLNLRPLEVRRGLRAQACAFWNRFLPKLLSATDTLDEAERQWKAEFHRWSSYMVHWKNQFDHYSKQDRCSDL
Description: Inhibition of bovine AChE after 20 mins using acetylthiocholine iodide as a substrate by Ellman's assay

[3] = molecular target: Butyrylcholinesterase (Equus caballus, UniProt Q9N1N9)
Chain of Butyrylcholinesterase (Q9N1N9 whole entry): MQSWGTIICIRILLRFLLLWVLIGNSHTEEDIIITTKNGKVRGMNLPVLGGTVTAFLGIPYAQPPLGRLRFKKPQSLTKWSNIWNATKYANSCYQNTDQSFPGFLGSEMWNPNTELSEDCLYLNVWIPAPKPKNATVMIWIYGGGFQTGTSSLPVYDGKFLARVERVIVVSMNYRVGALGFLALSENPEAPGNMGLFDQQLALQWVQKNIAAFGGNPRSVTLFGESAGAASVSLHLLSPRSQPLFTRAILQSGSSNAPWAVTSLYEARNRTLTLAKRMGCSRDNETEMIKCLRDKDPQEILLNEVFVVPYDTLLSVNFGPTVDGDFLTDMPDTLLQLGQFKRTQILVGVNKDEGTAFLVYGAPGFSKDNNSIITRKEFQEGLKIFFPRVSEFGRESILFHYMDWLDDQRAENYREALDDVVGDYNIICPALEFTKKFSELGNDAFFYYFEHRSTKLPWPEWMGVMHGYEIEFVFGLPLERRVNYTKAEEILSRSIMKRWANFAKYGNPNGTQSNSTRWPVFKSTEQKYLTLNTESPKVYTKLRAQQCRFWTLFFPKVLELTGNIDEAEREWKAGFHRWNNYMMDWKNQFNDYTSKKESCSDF
Description: Inhibition of equine BChE after 20 mins using butyrylthiocholine iodide as a substrate by Ellman's assay

[4] = molecular target: T2, Acetylcholinesterase (Bos taurus) (UniProt P23795); assay: Inhibition of bovine AChE at 10 uM after 20 mins using acetylthiocholine iodide as a substrate by Ellman's assay
T2 sequence (whole entry): T1 sequence (P23795 whole entry)

[5] = molecular target: Acetylcholinesterase (Homo sapiens, UniProt P22303)
Chain of Acetylcholinesterase (Homo sapiens, UniProt P22303) (P22303 whole entry): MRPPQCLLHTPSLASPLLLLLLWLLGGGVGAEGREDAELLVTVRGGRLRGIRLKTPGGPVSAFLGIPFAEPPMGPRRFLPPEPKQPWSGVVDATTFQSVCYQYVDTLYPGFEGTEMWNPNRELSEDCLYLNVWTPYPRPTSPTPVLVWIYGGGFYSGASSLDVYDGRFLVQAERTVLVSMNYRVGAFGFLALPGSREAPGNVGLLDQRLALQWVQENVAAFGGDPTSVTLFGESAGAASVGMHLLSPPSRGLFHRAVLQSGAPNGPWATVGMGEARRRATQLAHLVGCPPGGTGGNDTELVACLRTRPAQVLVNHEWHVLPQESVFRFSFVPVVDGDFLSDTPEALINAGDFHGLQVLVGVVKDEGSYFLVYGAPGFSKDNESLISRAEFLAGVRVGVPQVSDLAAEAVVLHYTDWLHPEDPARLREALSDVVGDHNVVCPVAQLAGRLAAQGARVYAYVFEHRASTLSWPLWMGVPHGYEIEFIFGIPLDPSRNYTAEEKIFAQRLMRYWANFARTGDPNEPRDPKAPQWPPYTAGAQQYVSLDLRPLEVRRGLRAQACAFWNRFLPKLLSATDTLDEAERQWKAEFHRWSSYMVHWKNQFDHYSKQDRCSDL
Description: Inhibition of human recombinant AChE after 20 mins using acetylthiocholine iodide as a substrate by Ellman's assay

[6] = molecular target: Cholinesterase (Homo sapiens, UniProt P06276)
Chain of Cholinesterase (P06276 whole entry): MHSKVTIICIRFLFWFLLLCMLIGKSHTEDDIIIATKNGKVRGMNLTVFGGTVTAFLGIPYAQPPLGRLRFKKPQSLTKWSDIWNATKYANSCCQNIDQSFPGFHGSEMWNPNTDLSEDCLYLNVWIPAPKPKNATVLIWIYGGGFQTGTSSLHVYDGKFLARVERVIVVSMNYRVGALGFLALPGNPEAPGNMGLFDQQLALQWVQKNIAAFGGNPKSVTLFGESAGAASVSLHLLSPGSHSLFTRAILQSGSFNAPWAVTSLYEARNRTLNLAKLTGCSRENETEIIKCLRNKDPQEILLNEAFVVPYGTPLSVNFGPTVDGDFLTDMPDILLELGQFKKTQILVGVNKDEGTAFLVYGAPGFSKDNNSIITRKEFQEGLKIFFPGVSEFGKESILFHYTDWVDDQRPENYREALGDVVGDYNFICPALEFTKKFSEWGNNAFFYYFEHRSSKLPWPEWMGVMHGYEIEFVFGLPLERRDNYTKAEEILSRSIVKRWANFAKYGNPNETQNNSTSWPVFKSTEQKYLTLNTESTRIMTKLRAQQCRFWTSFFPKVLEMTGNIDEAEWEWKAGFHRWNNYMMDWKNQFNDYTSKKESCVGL
Description: Inhibition of human BChE after 20 mins using butyrylthiocholine iodide as a substrate by Ellman's assay

Structure (SMILES)	Ratio IC50 [1]	IC50 [2] [µM]	IC50 [3] [µM]	inhibition [4] [%]	IC50 [5] [µM]	IC50 [6] [µM]
CN(C)c1cc[n+](Cc2ccc(CCc3ccc(C[n+]4ccc(N(C)C)cc4)cc3)cc2)cc1	2.2	0.628	1.36			
CN(c1ccccc1)c1cc[n+](Cc2cccc(C[n+]3ccc(N(C)c4ccccc4)cc3)c2)cc1	0.79	1.15	0.91			
CN(c1ccc(Cl)cc1)c1cc[n+](Cc2ccc(-c3ccc(C[n+]4ccc(N(C)c5ccc(Cl)cc5)cc4)cc3)cc2)cc1	0.22	3.07	0.683			
CN(C)c1cc[n+](Cc2cccc(C[n+]3ccc(N(C)C)cc3)c2)cc1	19	0.39	7.56			
Nc1cc[n+](Cc2ccc(CCc3ccc(C[n+]4ccc(N)c5ccccc54)cc3)cc2)c2ccccc12	0.92	0.672	0.62			
Cc1ccc(C[n+]2ccc(N3CCCC3)cc2)cc1				52		
CN(c1cc[n+](Cc2cc(C[n+]3ccc(N(C)c4cc(Cl)cc(Cl)c4)cc3)cc(C[n+]3ccc(N(C)c4cc(Cl)cc(Cl)c4)cc3)c2)cc1)c1cc(Cl)cc(Cl)c1	0.38	1.77	0.679			
OC1C[N+]2(Cc3ccc(CCc4ccc(C[N+]56CCC(CC5)C(O)C6)cc4)cc3)CCC1CC2 (centres undefined)	22	0.097	2.09			
c1cc(C[n+]2ccc(N3CCCCC3)cc2)cc(C[n+]2ccc(N3CCCCC3)cc2)c1	2.9	0.114	0.335			
CN(C)c1cc[n+](Cc2ccc(CCCCc3ccc(C[n+]4ccc(N(C)C)cc4)cc3)cc2)cc1	1.5	0.252	0.372			
c1cc(C[n+]2ccc(N3CCCCC3)cc2)cc(-c2cccc(C[n+]3ccc(N4CCCCC4)cc3)c2)c1	6.9	0.026	0.179		0.06	0.33
c1cc(C[n+]2ccc(N3CCCC3)cc2)ccc1C[n+]1ccc(N2CCCC2)cc1	3.9	0.336	1.3			
CN(C)c1cc[n+](Cc2cc(C[n+]3ccc(N(C)C)cc3)cc(C[n+]3ccc(N(C)C)cc3)c2)cc1	3.6	2.75				
COc1cc2c(cc1OC)CN(c1cc[n+](Cc3cccc(-c4cccc(C[n+]5ccc(N6CCc7cc(OC)c(OC)cc7C6)cc5)c4)c3)cc1)CC2	2.3	0.519	1.17			
c1cc(C[n+]2ccc(N3CCCCCC3)cc2)ccc1CCCc1ccc(C[n+]2ccc(N3CCCCCC3)cc2)cc1	0.81	0.202	0.163			
c1ccc2c(c1)CCN(c1cc[n+](Cc3ccc(C[n+]4ccc(N5CCc6ccccc6C5)cc4)cc3)cc1)C2	2.6	0.126	0.327			
c1cc2cc(c1)C[n+]1ccc(cc1)NCc1ccc(cc1)CNc1cc[n+](cc1)C2	0.22	3.9	0.85			
c1ccc(-c2cc[n+](Cc3cccc(-c4cccc(C[n+]5ccc(-c6ccccc6)cc5)c4)c3)cc2)cc1	1.4	0.553	0.797			
COc1cc2c(cc1OC)CN(c1cc[n+](Cc3cccc(C[n+]4ccc(N5CCc6cc(OC)c(OC)cc6C5)cc4)c3)cc1)CC2	0.42	2.1	0.89			
CN(C)c1cc[n+](Cc2ccc(C[n+]3ccc(N(C)C)cc3)cc2)cc1	7.6	1.31				
OC1C[N+]2(Cc3cccc(-c4cccc(C[N+]56CCC(CC5)C(O)C6)c4)c3)CCC1CC2 (centres undefined)	0.11		1.15	55.8		
c1cc(C[n+]2ccc(N3CCCCC3)cc2)ccc1CCc1ccc(C[n+]2ccc(N3CCCCC3)cc2)cc1	1.6	0.079	0.13			
c1cc(C[n+]2ccc(N3CCCCC3)cc2)ccc1CCCc1ccc(C[n+]2ccc(N3CCCCC3)cc2)cc1	0.91	0.163	0.149			
Cc1ccc(C[n+]2ccc(N)c3ccccc32)cc1				34		
c1cc(-c2ccc(C[n+]3ccc(N4CCCCC4)cc3)cc2)ccc1C[n+]1ccc(N2CCCCC2)cc1	2.7	0.16	0.43			
CN(C)c1cc[n+](C[C@@H]2C[C@H]2C[n+]2ccc(N(C)C)cc2)cc1 (relative stereo)		8.78				

Structure (SMILES)	Ratio IC50 [1]	IC50 [2] [µM]	IC50 [3] [µM]	inhibition [4] [%]	IC50 [5] [µM]	IC50 [6] [µM]
c1cc(C[n+]2ccc(N3CCCCC3)cc2)ccc1C[n+]1ccc(N2CCCCC2)cc1	9.5	0.072	0.682		0.075	0.61
OC1C[N+]2(Cc3ccc(/C=C/c4ccc(C[N+]56CCC(CC5)C(O)C6)cc4)cc3)CCC1CC2 (centres undefined)	38	0.141	5.34			
c1cc(C[n+]2ccc(N3CCCC3)cc2)ccc1Cc1ccc(C[n+]2ccc(N3CCCC3)cc2)cc1	3.1	0.183	0.576			
COc1cc2c(cc1OC)CN(c1cc[n+](Cc3ccc(C[n+]4ccc(N5CCc6cc(OC)c(OC)cc6C5)cc4)cc3)cc1)CC2	0.7	1.95	1.37			
c1cc(C[n+]2ccc(N3CCCC3)cc2)cc(-c2cccc(C[n+]3ccc(N4CCCC4)cc3)c2)c1	13	0.039	0.518			
c1cc(C[n+]2ccc(N3CCCCC3)cc2)ccc1Cc1ccc(C[n+]2ccc(N3CCCCC3)cc2)cc1	0.75	0.083	0.062			
c1cc(C[n+]2ccc(N3CCCC3)cc2)ccc1CCCCc1ccc(C[n+]2ccc(N3CCCC3)cc2)cc1	6.5	0.104	0.671			
c1cc(C[n+]2ccc(N3CCc4ccccc4C3)cc2)cc(C[n+]2ccc(N3CCc4ccccc4C3)cc2)c1	0.68	0.281	0.19			
COc1cc2c(cc1OC)CN(c1cc[n+](Cc3ccc(-c4ccc(C[n+]5ccc(N6CCc7cc(OC)c(OC)cc7C6)cc5)cc4)cc3)cc1)CC2	16	0.094	1.53			
CN(c1cc[n+](Cc2ccc(C[n+]3ccc(N(C)c4cc(Cl)cc(Cl)c4)cc3)cc2)cc1)c1cc(Cl)cc(Cl)c1	0.31	5.2	1.6			
c1cc(C[n+]2ccc(N3CCCC3)cc2)ccc1CCc1ccc(C[n+]2ccc(N3CCCC3)cc2)cc1	1.9	0.385	0.735			
Cc1c[n+](Cc2cccc(-c3cccc(C[n+]4cc(C)c(N)c5ccccc54)c3)c2)c2ccccc2c1N	0.12	0.497	0.059			
c1cc(C[n+]2ccc(C3CCCCC3)cc2)cc(-c2cccc(C[n+]3ccc(C4CCCCC4)cc3)c2)c1	8.2	0.134	1.09			
CN(c1ccc(Cl)cc1)c1cc[n+](Cc2cccc(-c3cccc(C[n+]4ccc(N(C)c5ccc(Cl)cc5)cc4)c3)c2)cc1	0.28	1.78	0.496			
c1ccc2c(c1)CCN(c1cc[n+](Cc3ccc(-c4ccc(C[n+]5ccc(N6CCc7ccccc7C6)cc5)cc4)cc3)cc1)C2	0.92	0.346	0.318			
c1cc(C[n+]2ccc(N3CCOCC3)cc2)ccc1CCc1ccc(C[n+]2ccc(N3CCOCC3)cc2)cc1	1.7	2.67	4.48			
Cc1c2c(C)c3c(C)c1C[n+]1ccc(cc1)NCc1cc(cc(c1)CNc1cc[n+](cc1)C3)CNc1cc[n+](cc1)C2	0.14	3.68	0.516			
c1ccc(C[n+]2ccc(N3CCCC3)cc2)cc1		5.53				
c1cc(C[n+]2ccc(NC3CCCCC3)cc2)ccc1CCCCc1ccc(C[n+]2ccc(NC3CCCCC3)cc2)cc1	2.1	0.1	0.206			
c1cc(-c2ccc(C[n+]3ccc(N4CCCC4)cc3)cc2)ccc1C[n+]1ccc(N2CCCC2)cc1	14	0.09	1.27			
c1cc(C[N+]23CCC(CC2)CC3)cc(-c2cccc(C[N+]34CCC(CC3)CC4)c2)c1	0.081	1.1	0.089		0.62	0.036
CN(c1cc[n+](Cc2ccc(-c3ccc(C[n+]4ccc(N(C)c5cc(Cl)cc(Cl)c5)cc4)cc3)cc2)cc1)c1cc(Cl)cc(Cl)c1	0.19	2.87	0.55			
C(=C\c1ccc(C[n+]2ccc(N3CCCCC3)cc2)cc1)/c1ccc(C[n+]2ccc(N3CCCCC3)cc2)cc1	0.42	0.582	0.247			
c1cc(C[n+]2ccc(N3CCCC3)cc2)ccc1CCCc1ccc(C[n+]2ccc(N3CCCC3)cc2)cc1	3.6	0.081	0.292			
c1cc(C[n+]2ccc(N3CCCCCC3)cc2)ccc1CCc1ccc(C[n+]2ccc(N3CCCCCC3)cc2)cc1	3.2	0.086	0.274			
